Experimental data from the supplement of paper PMC10307832.

Assays:
Experiment in all cases: relative viability (nuclei count vs DMSO), 5 days (fraction); higher = more cells survive
[1] = compound: N[C@@H]1CCCN(c2c(/C=C3\SC(=O)NC3=O)cccc2-c2ccccc2)C1 [AZD1208] + COc1cc2c(Oc3ccc(NC(=O)C4(C(=O)Nc5ccc(F)cc5)CC4)cc3F)ccnc2cc1OCCCN1CCOCC1 [Foretinib] (partner 0.25 µM)
Outline: (§1)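 Cells from lung cancer lines were seeded into 1536-well plates and, one day later, dosed by pin tool. Treatments were either a single drug or a fixed dose of an anchor drug with five library-drug doses (not always all listed) in √10 steps. After 5 days, nuclei were stained in a one-step fixation (final 0.05% Triton X-100, 1% formaldehyde, 1 ug/ml Hoechst) and counted on 4× images, and relative viability is the treated-to-vehicle nuclei ratio, as the median of duplicate plates.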

[2] = compound: CN1CCN(CC1)C2=CC(=C(C=C2)NC3=NC(=C(S3)C(=O)C4=C(C=CC=C4Cl)Cl)N)OC [XMD14-99] + Cc1nc(NC(=O)N2CCC[C@H]2C(N)=O)sc1-c1ccnc(C(C)(C)C(F)(F)F)c1 [Alpelisib] (partner 2 µM)
Outline: as §1

[3] = compound: N[C@@H]1CCCN(c2c(/C=C3\SC(=O)NC3=O)cccc2-c2ccccc2)C1 [AZD1208] + N=C(N)NC(=N)NCCc1ccccc1 [Phenformin] (partner 250 µM)
Outline: as §1

[4] = compound: CN1CCN(CC1)C2=CC(=C(C=C2)NC3=NC(=C(S3)C(=O)C4=C(C=CC=C4Cl)Cl)N)OC [XMD14-99] + Cc1nc(Nc2ncc(C(=O)Nc3c(C)cccc3Cl)s2)cc(N2CCN(CCO)CC2)n1 [Dasatinib] (partner 0.075 µM)
Outline: as §1

Row | Cell Line | relative viability ([1]; first compound 0.08 µM) | relative viability ([1]; first compound 0.253 µM) | relative viability ([1]; first compound 0.8 µM) | relative viability ([1]; first compound 2.53 µM) | relative viability ([1]; first compound 8 µM) | relative viability ([2]; first compound 0.08 µM) | relative viability ([2]; first compound 0.8 µM) | relative viability ([2]; first compound 2.53 µM) | relative viability ([2]; first compound 8 µM) | relative viability ([3]; first compound 0.08 µM) | relative viability ([3]; first compound 0.253 µM) | relative viability ([3]; first compound 0.8 µM) | relative viability ([3]; first compound 2.53 µM) | relative viability ([3]; first compound 8 µM) | relative viability ([4]; first compound 0.08 µM) | relative viability ([4]; first compound 0.8 µM) | relative viability ([4]; first compound 2.53 µM) | relative viability ([4]; first compound 8 µM)
1 | EBC-1 | 0.0932 | 0.0985 | 0.0803 | 0.0927 | 0.103 | 0.819 | 0.783 | 0.653 | 0.561 | – | – | – | – | – | – | – | – | –
2 | EKVX | 0.798 | 0.744 | 0.876 | 0.858 | 0.913 | 0.767 | 0.985 | 0.876 | 0.696 | 0.23 | 0.247 | 0.258 | 0.256 | 0.228 | 0.497 | 0.561 | 0.5 | 0.373
3 | EMC-BAC-2 | 1.01 | 1.04 | 1 | 1.02 | 0.727 | 0.728 | 0.767 | 0.74 | 0.619 | 0.535 | 0.63 | 0.497 | 0.509 | 0.428 | 0.311 | 0.334 | 0.334 | 0.286
4 | EPLC-272H | 0.714 | 0.71 | 0.618 | 0.564 | 0.478 | 0.938 | 1.01 | 0.928 | 0.92 | 0.313 | 0.329 | 0.305 | 0.272 | 0.244 | 0.323 | 0.325 | 0.402 | 0.392
5 | H3255 | 0.919 | 0.867 | 0.65 | 0.954 | 0.932 | 0.605 | 0.636 | 0.629 | 0.506 | 0.37 | 0.353 | 0.372 | 0.401 | 0.405 | 0.437 | 0.496 | 0.347 | 0.249
6 | HARA | 0.905 | 0.709 | 0.827 | 0.539 | 0.804 | 0.872 | 0.784 | 0.734 | 0.481 | 0.454 | 0.498 | 0.377 | 0.474 | 0.468 | 0.274 | 0.249 | 0.273 | 0.189
7 | HCC-15 | 0.956 | 0.994 | 0.876 | 0.88 | 0.855 | 0.906 | 0.883 | 0.827 | 0.657 | 0.431 | 0.491 | 0.459 | 0.428 | 0.316 | 0.601 | 0.65 | 0.548 | 0.431
8 | HCC-44 | – | – | – | – | – | 0.825 | 0.788 | 0.821 | 0.797 | 0.219 | 0.202 | 0.172 | 0.147 | 0.176 | – | – | – | –
9 | HCC-78 | 0.549 | 0.499 | 0.512 | 0.526 | 0.625 | 0.371 | 0.308 | 0.331 | 0.291 | 0.766 | 1.03 | 0.692 | 0.753 | 0.644 | 0.421 | 0.299 | 0.431 | 0.239
10 | HCC-366 | 0.903 | 0.985 | 0.843 | 0.949 | 0.899 | 0.475 | 0.413 | 0.366 | 0.232 | 0.588 | 0.668 | 0.538 | 0.655 | 0.431 | 0.596 | 0.609 | 0.603 | 0.528
